Measured values reported in US9045505B2, “Nitric oxide donors” (University of Otago, priority 2006, dated 2015).

Test system: rat liver mitochondria
Assay: Membrane potential-dependent uptake into isolated mitochondria (TPP-selective electrode)
Type: biochemical
Settings: energized with 10 mM succinate, reversed by FCCP
Protocol: FIG. 8 is a trace showing the uptake of MitoSNAP and MitoNAP by energized mitochondria measured using an ion-selective electrode. For (a) and (b) mitochondria (2 mg protein/ml) were incubated in KCl buffer supplemented with rotenone in a stirred 3 ml chamber thermostatted at 37° C. and shielded from ambient light. An electrode selective for the TPP cation was inserted and calibrated by five sequential 1 μM additions of MitoNAP (a) or MitoSNAP (b). Succinate (10 mM) was then added to energize the mitochondria, followed by the uncoupler FCCP (0.5 μM). Rapid uptake of MitoNAP by energized mitochondria was observed and this was reversed by abolishing the membrane potential with the uncoupler FCCP (a). Energised mitochondria also rapidly accumulated MitoSNAP (b). However, in contrast to MitoNAP, uncoupling apparently led to only partial release of the accumulated MitoSNAP (b). This apparent incomplete release of MitoSNAP on uncoupling is presumably because MitoSNAP is converted to MitoNAP within mitochondria and this generates a different response from the electrode.
Mitochondrial incubations were usually in KCl buffer (120 mM KCl, 10 mM HEPES, 1 mM EGTA, 100 μM N,N-bis(2-bis[carboxymethyl]aminoethyl) glycine (DTPA) and 10 μM neocuproine, pH 7.2) with 10 mM succinate and 4 μg/ml rotenone in the dark at 37° C., unless stated otherwise. An electrode selective for the TPP moiety of MitoSNAP and MitoNAP was made and used as described previously (Asin-Cayuela, J., Manas, A. R., James, A. M., Smith, R. A. & Murphy, M. P. Fine-tuning the hydrophobicity of a mitochondria-targeted antioxidant. FEBS Letts. 571, 9-16 (2004)). Respiration rates were measured in a Clark type O2 electrode (Rank Brothers, UK). To measure GSH and GSSG, mitochondria (1 mg protein/ml) were incubated with 0-10 μM MitoSNO1 or MitoNAP for 10 min, pelleted by centrifugation and the GSH and GSSG contents assessed by the recycling assay (Scarlett, J. L., Packer, M. A., Porteous, C. M. & Murphy, M. P. Alterations to glutathione and nicotinamide nucleotides during the mitochondrial permeability transition induced by peroxynitrite. Biochem. Pharmacol. 52, 1047-1055 (1996)). The measurement of exposed mitochondrial protein thiols is described below.
Rat liver mitochondria (1 mg protein/ml) in KCl buffer was incubated at 37° C. with 5 μM MitoSNO. 1 μM additions of MitoSNO were made sequentially before addition of 10 mM succinate. 200 nM FCCP was then added to uncouple the mitochondria. The concentrations of O2 and MitoSNO in solution were measured simultaneously using a Clark-type O2 electrode in combination with an ion-selective electrode for triphenylphosphonium cation (TPP^+). […] This can be seen in FIG. 3.
When succinate was added, the mitochondria started respiring and set up a Δψ, which caused a decrease in the MitoSNO concentration, as detected by the ion-selective electrode (FIG. 3). When the mitochondria were uncoupled by FCCP, a concomitant increase in the concentration of MitoSNO, or its derivatives, in the medium was detected by the ion-selective electrode. The amount of MitoSNO taken up into the mitochondria from the trace in FIG. 3 corresponds to ˜2.5 μM of the initial external concentration of 5 μM. Therefore 7.5 nmol MitoSNO have been taken up into 3 mg protein, and as the mitochondrial volume is ˜0.5 μl/mg protein (Brown, G. C. and Brand, M. D. Biochem J., 1985, 225, 399-405), the concentration of MitoSNO within mitochondria is ˜5 mM. This represents a 2000 fold concentration relative to the 2.5 μM present in the external medium, and is consistent with a Nernstian uptake of MitoSNO.

For `CC(=O)NC(C(=O)NCCCCC[P+](c1ccccc1)(c1ccccc1)c1ccccc1)C(C)(C)SN=O.CS(=O)(=O)[O-]` (stereo not shown) [MitoSNAP, [5-(2-acetylamino-3-methyl-3-nitrosothio-butyrylamino)-penty1]-triphenylphosphonium methanesulfonate], the “uptake by isolated mitochondria” value was “significant Δψ-dependent uptake”.
